Reference: patent EP1641803B1, “THIENOPYRIMIDINE DERIVATIVES AS POTASSIUM CHANNEL INHIBITORS” (Xention Limited, priority 2003, dated 2004)

Key:
hKv1.5 = hKv1.5 (Homo sapiens, UniProt P22460); assay: Kv1.5 Autopatch Electrophysiology (whole cell patch-clamp); format: cell-based; conditions: compound at 1µM, room temperature (22-24°C), held at -80mV, step to 0mV for 1000ms, total charge measured
Summary of the method: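 Whole-cell automated patch-clamp at 22-24°C, compounds tested at 1µM in external bather (KCl/K-gluconate, pH 7.4; KCl/EGTA pipette). Cells held at -80mV and stepped to 0mV for 1000ms every 5s; only cells with IK > 500 pA and Rseries ≤18 MΩ used. Read-out: total charge over the whole step.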

human Kv1.5 = target: T1, human Kv1.5 (Homo sapiens, UniProt P22460); assay: Kv1.5 Rb+ Efflux Assay; format: cell-based; conditions: inhibition of 86Rb+ efflux through Kv1.5; cells stably transfected with human Kv1.5; 10 point concentration response curves n=2; normalised to 2.5mM 4 amino-pyridine block
T1 construct: expressed in transfected cells
Procedure: The pore of a potassium channel is permeable to other monovalent cations such as Rb^+ and Tl^+. Analysis of cellular efflux of potassium channel permeable ions enables potassium channel activity to be monitored directly. Cells stably transfected with cDNA for human Kv1.5 (in pEF6::VA-His-TOPO) were grown in Dulbecco's Modified Eagle media (DMEM) alpha supplemented with 10% Fetal Calf Serum (FCS), 20 µl/ml penicillin (5000U/ml) streptomycin (5000µg/ml), 10µl/ml [100x] glutamine, and blasticidin (7.5µg/ml). Cells were dispensed into 96 well cellstar TC plates and allowed to grow until a confluent monolayer was visible. On the morning of the assay run, cold media was aspirated using the TECAN plate washer, and a 50µl media spike containing 2µCi/ml (37kBq/ml) ^86Rb^+ added to each well containing cells using the Shallow-Well Matrix Platemate. Plates were placed in a incubator at 37°C for a minimum of 3 hours. Unloaded ^86Rb^+ in the "hot" media was aspirated and each well washed 4x250µl with Earls Balanced Salt Solution (EBSS) which contained 5mM KCl, 140mM NaCl, 2mM CaCl2, 1mM MgSO4, 10mM HEPES, and 5mM glucose, pH 7.4, 290-300 mOsm. These cells were then pre-incubated with 50µl of EBSS +/- test compounds for 10 minutes at room temperature. After the 10 minute incubation, 50µl of modified EBSS which contained 145mM KCl, 2mM CaCl2, 1mM MgSO4, 10mM HEPES, 5mM glucose, pH 7.4, 290-300 mOsm, was added, and the cells were incubated for a further 10 minutes at room temperature. The high KCl EBSS was used to depolarise cells to a membrane potential that would activate Kv1.5 channels. After the final incubation 80µl/100µl of the reaction from each well was transferred to equivalent wells in a Packard "Optiplate" white 96 well plate and counted in a Packard TopCount liquid scintillation counter by Cerenkov emission. Percentage inhibition ^86Rb^+ efflux through Kv1.5 was calculated by normalisation to 2.5mM 4 amino-pyridine control block of Kv1.5. Alternatively cells were loaded with ^85Rb^+ and quantified by atomic absorption spectroscopy. IC50 determinations were derived from 10 point concentration response curves n=2 using the method described above. Data was fitted as variable slope sigmoidal fit using Graphpad Prism (V3.02) software.

T1 sequence (P22460 whole entry): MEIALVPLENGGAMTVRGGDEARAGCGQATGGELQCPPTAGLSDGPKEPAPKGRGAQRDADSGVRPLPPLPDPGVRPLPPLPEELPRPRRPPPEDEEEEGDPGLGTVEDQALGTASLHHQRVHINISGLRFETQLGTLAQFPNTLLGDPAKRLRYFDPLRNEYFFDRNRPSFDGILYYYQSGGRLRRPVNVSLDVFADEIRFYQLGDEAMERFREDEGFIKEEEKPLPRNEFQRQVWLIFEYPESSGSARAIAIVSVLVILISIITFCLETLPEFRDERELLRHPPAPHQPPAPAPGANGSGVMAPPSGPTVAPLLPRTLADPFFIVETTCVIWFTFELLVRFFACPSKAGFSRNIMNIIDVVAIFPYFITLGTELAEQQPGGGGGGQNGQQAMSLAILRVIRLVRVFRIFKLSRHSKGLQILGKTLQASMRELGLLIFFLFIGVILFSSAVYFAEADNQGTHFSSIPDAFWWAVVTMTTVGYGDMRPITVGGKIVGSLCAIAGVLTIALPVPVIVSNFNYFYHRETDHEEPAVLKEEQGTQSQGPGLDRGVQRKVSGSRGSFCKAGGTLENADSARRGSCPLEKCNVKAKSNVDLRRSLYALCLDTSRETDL
Chain of hKv1.5 (P22460 whole entry): as above

| Structure (SMILES) | inhibition at 1 µM (hKv1.5) | IC50 (human Kv1.5) |
| --- | --- | --- |
| Clc1ccc(-c2csc3ncnc(NCCc4ccccc4)c23)cc1 [Example 136, [5-(4-Chloro-phenyl)-thieno[2,3-d]pyrimidin-4-yl]-phenethyl-amine] | 27.2% | 16.8 µM |
| Brc1ccc(-c2csc3ncnc(NCCc4ccc5c(c4)OCCO5)c23)cc1 [Example 137, [5-(4-Bromo-phenyl)-thieno[2,3-d]pyrimidin-4-yl]-[2-(2,3-dihydro-benzo[1,4]dioxin-6-yl)-ethyl]-amine] | 96% | 10.7 µM |
| COc1ccc(-c2csc3ncnc(NCc4ccco4)c23)cc1 [Example 139, Furan-2-ylmethyl-[5-(4-methoxy-phenyl)-thieno[2,3-d]pyrimidin-4-yl]-amine] | 46.9% | 1.68 µM |
| CCc1sc2ncnc(NCc3ccco3)c2c1-c1ccccc1 [Example 140, (6-Ethyl-5-phenyl-thieno[2,3-d]pyrimidin-4-yl)-furan-2-ylmethyl-amine] | 74.2% | 2.71 µM |
| CCc1sc2ncnc(NCc3ccco3)c2c1-c1ccoc1 [Example 141, (6-Ethyl-5-furan-3-yl-thieno[2,3-d]pyrimidin-4-yl)-furan-2-ylmethyl-amine] | 81.3% | 2.15 µM |
| Cc1ccccc1-c1csc2ncnc(NCc3ccccn3)c12 [Example 142, Pyridin-2-ylmethyl-(5-o-tolyl-thieno[2,3-d]pyrimidin-4-yl)-amine] | 49.7% | 1.28 µM |
| Cc1ccccc1-c1csc2ncnc(NCc3ccco3)c12 [Example 143, Furan-2-ylmethyl-(5-o-tolyl-thieno[2,3-d]pyrimidin-4-yl)-amine] | 63% | 1.32 µM |
| CC(C)(C)c1ccc(-c2csc3ncnc(NCc4ccccn4)c23)cc1 [Example 144, [5-(4-tert-Butyl-phenyl)-thieno[2,3-d]pyrimidin-4-yl]-pyridin-2-ylmethyl-amine] | 81% | 1.32 µM |
| CC(C)(C)c1ccc(-c2csc3ncnc(NCc4ccco4)c23)cc1 [Example 145, [5-(4-tert-Butyl-phenyl)-thieno[2,3-d]pyrimidin-4-yl]-furan-2-ylmethyl-amine] | 68% | 3.05 µM |
| c1ccc(CNc2ncnc3scc(C4CCCCC4)c23)nc1 [Example 146, (5-Cyclohexyl-thieno[2,3-d]pyrimidin-4-yl)-pyridin-2-ylmethyl-amine] | 81% | 1.68 µM |
| c1coc(CNc2ncnc3scc(C4CCCCC4)c23)c1 [Example 147, (5-Cyclohexyl-thieno[2,3-d]pyrimidin-4-yl)-furan-2-ylmethyl-amine] | 71% | 2.52 µM |
| CC(C)c1nc(NCc2ccccn2)c2c(-c3ccccc3)csc2n1 [Example 148, (2-Isopropyl-5-phenyl-thieno[2,3-d]pyrimidin-4-yl)-pyridin-2-ylmethyl-amine] | 88% | 1.51 µM |
| Cc1nc(NCc2ccco2)c2c(-c3ccccc3)csc2n1 [Example 150, Furan-2-ylmethyl-(2-methyl-5-phenyl-thieno[2,3-d]pyrimidin-4-yl)-amine] | 96.8% | 0.14 µM |
| FC(F)(F)c1nc(NCc2ccccn2)c2c(-c3ccccc3)csc2n1 [Example 151, (5-Phenyl-2-trifluoromethyl-thieno[2,3-d]pyrimidin-4-yl)-pyridin-2-ylmethyl-amine] | 95% | 1.68 µM |
| CCc1nc(NCc2ccccn2)c2c(-c3ccccc3)csc2n1 [Example 152, (2-Ethyl-5-phenyl-thieno[2,3-d]pyrimidin-4-yl)-pyridin-2-ylmethyl-amine] | 98.7% | 0.39 µM |
| CCc1nc(NCc2ccco2)c2c(-c3ccccc3)csc2n1 [Example 153, (2-Ethyl-5-phenyl-thieno[2,3-d]pyrimidin-4-yl)-furan-2-ylmethyl-amine] | 96.8% | 3.63 µM |
| Cc1nc(NCc2ccccn2)c2c(-c3ccc(F)cc3)csc2n1 [Example 155, [5-(4-Fluorophenyl)-2-methyl-thieno[2,3-d]pyrimidin-4-yl]-pyridin-2-ylmethyl-amine] | 92.2% | 1.62 µM |
| Cc1sc2ncnc(NCc3ccccn3)c2c1-c1ccccc1 [Example 157, (6-Methyl-5-phenyl-thieno[2,3-d]pyrimidin-4-yl)-pyridin-2-ylmethyl-amine] | 88% | 0.24 µM |
| c1ccc(-c2csc3ncnc(NC4CCCc5ccccc54)c23)cc1 (stereo not drawn) [Example 158, (5-Phenyl-thieno[2,3-d]pyrimidin-4-yl)-(1,2,3,4-tetrahydro-naphthalen-1-yl)-amine] | 83.4% | 17.7 µM |
| Cc1sc2ncnc(N3CCCCC3)c2c1-c1ccccc1 [Example 159, 6-Methyl-5-phenyl-4-piperidin-1-yl-thieno[2,3-d]pyrimidine] | 83% | 13.4 µM |
| c1ccc(-c2csc3ncnc(NCc4csc(-c5cccs5)n4)c23)cc1 [Example 161, (5-Phenyl-thieno[2,3-d]pyrimidin-4-yl)-(2-thiophen-2-yl-thiazol-4-ylmethyl)-amine] | 79.4% | 25.5 µM |
| c1ccc(-c2nc(CNc3ncnc4scc(-c5ccccc5)c34)cs2)cc1 [Example 162, (2-Phenyl-thiazol-4-ylmethyl)-(5-phenyl-thieno[2,3-d]pyrimidin-4-yl)-amine] | 74.5% | 19.7 µM |
| c1ccc(CCNc2ncnc3scc(-c4cccs4)c23)cc1 [Example 163, Phenethyl-(5-thiophen-2-yl-thieno[2,3-d]pyrimidin-4-yl)-amine] | 70.8% | 14.3 µM |
| Brc1sc2ncnc(NCc3ccccn3)c2c1-c1ccccc1 [Example 164, (6-Bromo-5-phenyl-thieno[2,3-d]pyrimidin-4-yl)-pyridin-2-ylmethyl-amine] | 92.8% | 0.53 µM |
| Brc1sc2ncnc(NCc3ccco3)c2c1-c1ccccc1 [Example 165, (6-Bromo-5-phenyl-thieno[2,3-d]pyrimidin-4-yl)-furan-2-ylmethyl-amine] | 91% | 1.6 µM |
| Clc1nc(NCc2ccccn2)c2c(-c3ccccc3)csc2n1 [Example 181, (2-Chloro-5-phenyl-thieno[2,3-d]pyrimidin-4-yl)-pyridin-2-ylmethyl-amine] | 96% | 4.13 µM |
| Clc1nc(NCc2ccco2)c2c(-c3ccccc3)csc2n1 [Example 182, (2-Chloro-5-phenyl-thieno[2,3-d]pyrimidin-4-yl)-furan-2-ylmethyl-amine] | 75.8% | 1.04 µM |
| c1ccc(-c2csc3nc(NCC4CC4)nc(NCc4ccccn4)c23)cc1 [Example 188, N^2-Cyclopropylmethyl-5-phenyl-N^4-pyridin-2-ylmethyl-thieno[2,3-d]pyrimidine-2,4-diamine] | 98% | 2.52 µM |
| OCCNc1nc(NCc2ccccn2)c2c(-c3ccccc3)csc2n1 [Example 190, 2-{5-Phenyl-4-[(pyridin-2-ylmethyl)-amino]-thieno[2,3-d]pyrimidin-2-ylamino}-ethanol] | 97.1% | 0.26 µM |
| COc1nc(NCc2ccccn2)c2c(-c3ccccc3)csc2n1 [Example 191, (2-Methoxy-5-phenyl-thieno[2,3-d]pyrimidin-4-yl)-pyridin-2-ylmethyl-amine] | 91.8% | 0.47 µM |
